The target in test [1] is Alpha-1D adrenergic receptor (Homo sapiens) (UniProt P25100). Put plainly: Binding affinity to the adrenergic receptor alpha-1D of cloned human receptor.
The target in test [2] is Alpha-1A adrenergic receptor (Homo sapiens) (UniProt P35348). The experiment in a line: In vitro binding affinity towards alpha-1A adrenergic receptor through displacement of [3H]prazosin in cloned human receptor. (In general: Displacement assays read how much labelled ligand stays bound in the presence of the test substance.)
Test [3] addresses T1, 5-hydroxytryptamine receptor 1A (Homo sapiens, UniProt P08908).
T1 sequence (P08908 whole entry): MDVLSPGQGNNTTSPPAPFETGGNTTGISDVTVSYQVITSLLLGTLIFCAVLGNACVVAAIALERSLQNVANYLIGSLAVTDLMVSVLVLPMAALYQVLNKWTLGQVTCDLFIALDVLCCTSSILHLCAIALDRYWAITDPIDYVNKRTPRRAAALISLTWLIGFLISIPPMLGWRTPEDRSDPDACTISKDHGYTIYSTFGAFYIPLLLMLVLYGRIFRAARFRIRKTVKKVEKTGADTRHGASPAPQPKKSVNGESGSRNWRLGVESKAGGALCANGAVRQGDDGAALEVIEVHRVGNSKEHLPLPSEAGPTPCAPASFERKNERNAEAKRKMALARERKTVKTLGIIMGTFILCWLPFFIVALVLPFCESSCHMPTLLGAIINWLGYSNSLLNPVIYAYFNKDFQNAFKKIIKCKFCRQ
Put plainly: Binding affinity to human 5-hydroxytryptamine 1A receptor was measured using [3H]-8-hydroxy-2-(di-n-propylamine) tetraline [3H]8-OH-DPAT) as radioligand.

SMILES strings stand for the structures.

Usually Ki stands for a measure of affinity in units of concentration, obtained from inhibition or displacement. A low value points to a stronger hold on the target.

For the compound `O=C1CC2(CCC2)CC(=O)N1CCN1CCN(c2cc(Cl)ccc2Cl)CC1`, the inhibition constant (Ki) in test [1] is 2.65 nM; in test [2] it was 120 nM.

As to `Cc1ccccc1N1CCN(CCN2C(=O)CC3(CCCC3)CC2=O)CC1`, the Ki was determined as 25.4 nM in test [3], 2.16 nM in test [1] and 584 nM in test [2].

Turning to `O=C1CC2(CCCC2)CC(=O)N1CCNCCOc1cc(Cl)ccc1Cl`, the inhibition constant Ki in test [3] was > 1000 nM; in test [1], 207 nM.

For the compound `O=C1CC2(C=CN1CCN1CCN(c3ccccc3Cl)CC1)CCCC2`, the inhibitory constant (Ki) in test [3] was 9.38 nM; in test [1], 0.84 nM; in test [2], 53.9 nM.

For the compound `CC1CN(c2ccccc2[N+](=O)[O-])CCN1CCN1C(=O)CC2(CCCC2)CC1=O` (stereo not given), the inhibitory constant (Ki) in test [3] was 86.2 nM; in test [1], 597 nM.

Take `O=C1CC2(CCCC2)CC(=O)N1CCN1CCN(c2c(Cl)cccc2Cl)CC1`: the Ki turned out to be 234 nM in test [3] and 29.9 nM in test [1].

On to `O=C1CC2(CCCC2)CC(=O)N1CCN1CCN(c2ccccc2)CC1`, for which the inhibitory constant (Ki) in test [3] stood at 35.7 nM; in test [1], 4.32 nM; in test [2], 3350 nM.

Regarding `CN(CCCOc1cc(Cl)ccc1Cl)CCN1C(=O)CC2(CCCC2)CC1=O`, the Ki in test [3] is 452 nM; in test [1], 110 nM.

In the case of `O=C1CC2(CCCC2)CC(=O)N1CCN1CCN(c2cccc(C(F)(F)F)c2)CC1`, the Ki in test [3] worked out at 8.22 nM; in test [1], 153 nM.

As to `O=C1CC2(CCCC2)CC(=O)N1CCN1CCN(c2ccccc2F)CC1`, in test [2], the Ki is > 1000 nM.

For `O=C1CC2(CCCC2)CC(=O)N1CCN1CCN(c2cc(Br)ccc2Br)CC1`, the Ki in test [1] stood at 3.72 nM; in test [2], 114 nM.

Consider `O=C1CC2(CCCC2)CC(=O)N1CCN1CCN(c2ccc(Cl)cc2)CC1`, for which the Ki in test [3] amounted to 599 nM; in test [1] it was 35.9 nM.

Turning to `O=C1CC2(CCCC2)CC(=O)N1CCN1CCC(c2ccccc2Cl)CC1`, the Ki in test [3] is 5.25 nM; in test [1] it was 1.11 nM; in test [2], 2.01 nM.

Take `CN(CCN1C(=O)CC2(CCCC2)CC1=O)CC(=O)N(C)c1cc(Cl)ccc1Cl`: the Ki in test [3] and in test [1] was > 1000 nM throughout.

For the compound `O=C1CC2(CCCC2)CC(=O)N1CCCCN1CCN(c2cc(Cl)ccc2Cl)CC1`, the Ki in test [3] came to 26.1 nM; in test [1] it was 0.67 nM; in test [2] it was 1.81 nM.

Consider `COc1ccccc1N1CCN(CCN2C(=O)CC3(CCNCC3)CC2=O)CC1`, for which the figures for the Ki in test [3], in test [1] and in test [2] were > 1000 nM, 71.7 nM and 631 nM, respectively.

Take `O=C1CC2(CCCC2)CC(=O)N1CCN1CCN(c2ccccc2C2CC2)CC1`: the Ki was 1.2 nM in test [3], 1.34 nM in test [1] and 10.9 nM in test [2].

`O=C1CC2(CCCC2)CC(=O)N1CCN1CCN(c2ccccc2Cl)CC1`: the results for the Ki in test [3], in test [1] and in test [2] were 4.24 nM, 0.83 nM and 552 nM, respectively.

Take `O=C1CC2(CCCC2)CC(=O)N1CCN1CCN(c2cc(C(F)(F)F)ccc2Cl)CC1`: the Ki in test [3] was > 1000 nM; in test [1], 39.1 nM.

Regarding `CN(CCNc1cc(Cl)ccc1Cl)CCN1C(=O)CC2(CCCC2)CC1=O`, the values for the Ki in test [3] and in test [1] were 717 nM and 674 nM, respectively.

As for `O=C1CC2(CCCC2)CC(=O)N1CCN1CCN(c2ccc(Cl)c(Cl)c2)CC1`, the Ki in test [3] came out at 19.8 nM; in test [1], 5.38 nM.

Regarding `CC(C)c1ccc(N2CCN(CCN3C(=O)CC4(CCCC4)CC3=O)CC2)cc1`, the Ki in test [3] and in test [1] was > 1000 nM each time.

Take `COc1ccccc1N1CCN(CCN2C(=O)CC3(CCN(Cc4ccccc4)CC3)CC2=O)CC1`: the Ki in test [3] was > 1000 nM; in test [1], 35.1 nM; in test [2], 294 nM.

In the case of `O=C1CC2(CCCC2)CCN1CCN1CCN(c2ccccc2Cl)CC1`, the Ki in test [3] worked out at 1.06 nM; in test [1] it was 0.54 nM; in test [2], 87.5 nM.

Turning to `Cc1ccc(N2CCN(CCN3C(=O)CC4(CCCC4)CC3=O)CC2)c(C)c1`, the figures for the Ki in test [3] and in test [1] were 2360 nM and 73.3 nM, respectively.

In the case of `O=C1CC2(CCCC2)CC(=O)N1CCN1CCN(c2ccccc2Br)CC1`, the figures for the Ki in test [3], in test [1] and in test [2] were 1.29 nM, 1.6 nM and 376 nM, respectively.

On to `Cc1ccc(F)c(N2CCN(CCN3C(=O)CC4(CCCC4)CC3=O)CC2)c1`, for which the results for the inhibitory constant (Ki) in test [1] and in test [2] were 2.38 nM and > 1000 nM, respectively.

As to `O=C1CC2(CCCC2)CC(=O)N1CCN1CCN(c2ccc(Cl)cc2Cl)CC1`, the Ki worked out at 12.1 nM in test [3] and 3.89 nM in test [1].

As for `CN(C(=O)CNCCN1C(=O)CC2(CCCC2)CC1=O)c1cc(Cl)ccc1Cl`, the Ki in test [3] and in test [1] was > 1000 nM in each case.

For `CC(C)Oc1ccccc1N1CCN(CCN2C(=O)CC3(CCCC3)CC2=O)CC1`, the Ki in test [3] was 0.54 nM; in test [1], 2.9 nM; in test [2], 3.54 nM.

As to `O=C1CC2(CCCC2)CC(=O)N1CCN1CCN(c2cc(C(F)(F)F)ccc2F)CC1`, the inhibition constant Ki in test [1] is 7.56 nM; in test [2], > 1000 nM.

For `O=C1CC2(CCCC2)CC(=O)N1CCN1CCN(c2cc([N+](=O)[O-])ccc2F)CC1`, the inhibition constant (Ki) was > 1000 nM in test [3] and 46.3 nM in test [1].

As for `COc1ccccc1OCCN(C)CCN1C(=O)CC2(CCCC2)CC1=O`, the inhibition constant Ki was 259 nM in test [3], 18.2 nM in test [1] and > 1000 nM in test [2].

For the compound `O=C1CC2(CCCC2)CC(=O)N1CCN1CCN(c2cc(F)ccc2F)CC1`, the Ki came to 61 nM in test [3] and 0.14 nM in test [1].

As to `O=C1CC2(CCCC2)CC(=O)N1CCN1CCCN(c2ccccc2Cl)CC1`, the values for the Ki in test [3], in test [1] and in test [2] were 0.34 nM, 1.38 nM and 295 nM, respectively.

On to `N#Cc1ccccc1N1CCN(CCN2C(=O)CC3(CCCC3)CC2=O)CC1`, for which the results for the Ki in test [3], in test [1] and in test [2] were 5.37 nM, 0.93 nM and 214 nM, respectively.

`O=C1CC2(CCCC2)CC(=O)N1CCN1CCN(c2cccc(Cl)c2Cl)CC1`: the Ki in test [3] was found to be 3.37 nM; in test [1] it was 12.7 nM.

Regarding `O=C1CC2(CCCCC2)CC(=O)N1CCN1CCN(c2cc(Cl)ccc2Cl)CC1`, the Ki in test [1] is 2.21 nM; in test [2], 331 nM.

`O=C1CC2(CCCC2)CC(=O)N1CCN1CCC(c2cc(Cl)ccc2Cl)CC1`: the inhibition constant Ki came to 1.5 nM in test [1] and 119 nM in test [2].

For `O=C1CC2(CCCC2)CC(=O)N1CCNCCOc1ccccc1Cl`, the Ki in test [3] and in test [1] was > 1000 nM in each case.

In the case of `CC(CN1CCN(c2cc(Cl)ccc2Cl)CC1)N1C(=O)CC2(CCCC2)CC1=O` (stereo not given), the Ki worked out at 0.41 nM in test [1] and 187 nM in test [2].

Turning to `CC1(C)CC(=O)N(CCN2CCN(c3ccccc3Cl)CC2)C(=O)C1`, the Ki in test [3] stood at 65.8 nM; in test [1], 23.4 nM.

For the compound `CN(CCN1C(=O)CC2(CCCC2)CC1=O)CC(=O)Nc1cc(Cl)ccc1Cl`, the figures for the inhibition constant (Ki) in test [3] and in test [1] were > 10000 nM and > 1000 nM, respectively.

For the compound `Cc1ccc(C)c(N2CCN(CCN3C(=O)CC4(CCCC4)CC3=O)CC2)c1`, the Ki amounted to 10.1 nM in test [1] and 119 nM in test [2].

Take `CC1CN(c2ccccc2[N+](=O)[O-])CC(C)N1CCN1C(=O)CC2(CCCC2)CC1=O` (stereo not given): the results for the Ki in test [3] and in test [1] were 399 nM and > 1000 nM, respectively.

As for `O=C1C=CC(=O)N1CCN1CCN(c2cc(Cl)ccc2Cl)CC1`, the values for the Ki in test [3] and in test [1] were > 1000 nM and 126 nM, respectively.

For the compound `O=C1CC2(CCCC2)C(=O)N1CCN1CCN(c2cc(Cl)ccc2Cl)CC1`, the values for the Ki in test [1] and in test [2] were 3.11 nM and 68.3 nM, respectively.

With `CN(CCOc1ccccc1Cl)CCN1C(=O)CC2(CCCC2)CC1=O`, the Ki in test [3] worked out at 125 nM; in test [1], 14.8 nM.

In the case of `CN(CCN1C(=O)CC2(CCCC2)CC1=O)CCN(C)c1cc(Cl)ccc1Cl`, the Ki worked out at 16.4 nM in test [1] and 786 nM in test [2].

On to `N#Cc1ccc(Cl)cc1N1CCN(CCN2C(=O)CC3(CCCC3)CC2=O)CC1`, for which the Ki stood at 0.2 nM in test [1] and 503 nM in test [2].

Regarding `COc1ccccc1OCCNCCN1C(=O)CC2(CCCC2)CC1=O`, the Ki in test [3] was 526 nM; in test [1] it was > 1000 nM.

Regarding `CN(CCCN(C)c1cc(Cl)ccc1Cl)CCN1C(=O)CC2(CCCC2)CC1=O`, the Ki in test [3] was > 1000 nM; in test [1], 110 nM.

For the compound `O=C1CC2(CCCC2)CC(=O)N1CCN1CCN(c2ccc(F)cc2)CC1`, the Ki in test [3] stood at 153 nM; in test [1], 24.1 nM.

With `O=C1CC2(CCCC2)CC(=O)N1CCN1CCN(c2ccccc2[N+](=O)[O-])CC1`, the inhibition constant (Ki) in test [3] was determined as 11.3 nM; in test [1], 15.3 nM.

Regarding `O=C1CC2(CCCC2)CC(=O)N1CCN1CCN(c2ccccc2C(F)(F)F)CC1`, the figures for the inhibition constant Ki in test [3] and in test [1] were 26.3 nM and 5.25 nM, respectively.

On to `O=C1CC2(CCCC2)CC(=O)N1CCN1CCN(c2cc(F)ccc2Cl)CC1`, for which the Ki in test [1] was 0.18 nM; in test [2] it was 108 nM.

In the case of `O=C1CC2(CCCC2)CC(=O)N1CCN1CCN(c2cc(I)ccc2Cl)CC1`, the Ki in test [1] came to 15.3 nM; in test [2], 479 nM.

Take `O=C1CC2(CCCC2)CC(=O)N1CCN1CCN(c2ccccc2O)CC1`: the Ki in test [3] is 1.36 nM; in test [1] it was 16.1 nM.

Regarding `CCOC(=O)c1ccccc1N1CCN(CCN2C(=O)CC3(CCCC3)CC2=O)CC1`, the results for the Ki in test [3] and in test [1] were 4.07 nM and 29 nM, respectively.

`O=C1CCC(=O)N1CCN1CCN(c2cc(Cl)ccc2Cl)CC1` gave a Ki in test [1] of 7.78 nM.

Take `COc1ccc(N2CCN(CCN3C(=O)CC4(CCCC4)CC3=O)CC2)cc1`: the Ki in test [3] was determined as 54.6 nM; in test [1] it was 37.8 nM.

The values above are taken from ChEMBL document CHEMBL1149137, “Synthesis, screening, and molecular modeling of new potent and selective antagonists at the alpha 1d adrenergic receptor” (J Med Chem, 2004).
